{
  "source": "patent US20200360647A1",
  "about": "“Use Of Inhaled Nitric Oxide For The Improvement Of Right And/Or Left Ventricular Function” (Bellerophon Pulse Technologies LLC, priority 2017, published 2020)",
  "format_in_all_cases": "in vivo, human",
  "key": {"[1]": {"tested_on": "subjects with PH-IPF on LTOT", "experiment": "TAPSE (RV function) during chronic pulsed iNO therapy, PH-IPF study", "description": "(§1) Maintenance and/or improvements in RV function can be assessed by many echocardiographic measurements. One such quantitative approach to assess RV function is the measurement of the TAPSE. The TAPSE estimates RV systolic function by measuring the level of systolic excursion of the lateral tricuspid valve annulus towards the apex. An excellent correlation between the TAPSE and RV ejection fraction as assessed by radionuclide angiography has previously been established and the approach appears reproducible and proven to be a strong predictor of prognosis in heart failure. [Reference: Heart. 2006 April; 92(Suppl 1): i19-i26.]\nThe secondary endpoints of Part 2a (acute; placebo vs. iNO 75 mcg/kg IBW/hr) were change in Borg CR10 leg fatigue and dyspnea scale, changes in breathing questionnaire and changes in right ventricular and left ventricular function.\nOne patient from Part 2a entered into Part 2b. During Part 2b patient receive iNO utilizing NO cylinder concentration (4,880 ppm) at a dose of 75 mcg/kg IBW/hr during 4 weeks for at least 12 hours/day.\nThe 2 patients from Part 3a entered Part 3b. During Part 3b, patients received iNO utilizing NO cylinder concentration (4,880 ppm) at a dose of 30 mcg/kg IBW/hr.\nSubject 1 received pulsed iNO at a dose of 75 mcg/kg IBW/hr for 4 weeks, and Subject 3 received pulsed iNO at a dose of 30 mcg/kg IBW/hr for 4 weeks."}, "[2]": {"tested_on": "subjects with PH-IPF on LTOT", "experiment": "sPAP by echocardiogram, acute iNO, PH-IPF study", "conditions": "iNO 75 mcg/kg IBW/hr, individual patients (Patient 1, Patient 2)", "description": "This study was an exploratory, three-part, clinical study to assess the effect of pulsed iNO on functional pulmonary imaging parameters in subjects with PH-COPD on LTOT (Part 1) PH-IPF on LTOT (Part 2 and Part 3) (IK-7002-COPD-006; NCT02267655). The objective of this exploratory study was to examine the utility of high resolution computed tomography (HRCT) to measure changes in functional respiratory imaging parameters as a function of short term iNO administration using a pulsed NO delivery device in subjects with PH-IPF (Part 2 and Part 3) on LTOT. The primary endpoint in this exploratory study is the change from baseline in lobar blood volume at total lung capacity (TLC) after dosing with pulsed iNO (Part 1), iNO or Placebo (Part 2a) and after 4 weeks iNO treatment (Part 3b) as measured by HRCT. […]\n(§2) The 2 subjects enrolled in Part 3a each received three different doses of iNO utilizing NO cylinder concentration (4,880 ppm) at a dose of 5 mcg/kg IBW/hr, 10 mcg/kg IBW/hr and 30 mcg/kg IBW/hr, all with LTOT. For each dose, the change in PAP pressure and the change in cardiac output was evaluated by RHC. […]\nDuring the chronic phase, the vasodilation and the hemodynamics were assessed. […] Both the acute and chronic phases evaluated iNO doses of 30 and 75 mcg/kg IBW/hr."}, "[3]": {"tested_on": "subjects with PH-COPD", "experiment": "sPAP by echocardiogram during chronic iNO therapy, PH-COPD study", "description": "(§3) This study is an open label Phase 1 study of iNO therapy in subjects with PH-COPD (PULSE-COPD-007; NCT03135860). The primary outcome of this study is the change in lobar blood volume at total lung capacity with iNO and the change in lobar blood volume with iNO after 4 weeks of treatment with iNO as measured by HRCT.\n(§4) Subjects also had sPAP≥38 mm Hg as measured by echocardiogram, a post-bronchodilatory FEV1/FVC<0.7 and a FEV1<60% predicted. All subjects were at least 40 years old and were current or former smokers with at least 10 pack-years of tobacco cigarette smoking before study entry. All subjects also had been receiving LTOT for at least 3 months for at least 10 hours per day.\n(§5) The PH-COPD subjects received pulsed iNO therapy for 4 weeks for at least 12 hours/day. The iNO was administered utilizing a 4,880 ppm NO cylinder concentration.\nA further analysis was performed of seven PH-COPD subjects that completed 4 weeks of treatment with iNO at a dose of 30 mcg/kg IBW/hr. […]"}, "[4]": {"tested_on": "subjects with PH-COPD", "experiment": "Six-minute walk distance (6MWD) during chronic iNO therapy, PH-COPD study", "conditions": "iNO 30 mcg/kg IBW/hr, individual subjects #1-#7", "description": "as §3, §4, §5\n(§6) A further analysis was performed of seven PH-COPD subjects that completed 4 weeks of treatment with iNO at a dose of 30 mcg/kg IBW/hr."}, "[5]": {"tested_on": "subjects with PH-IPF on LTOT", "experiment": "HRCT blood vessel volume, acute iNO, PH-IPF study (IK-7002-COPD-006)", "conditions": "iNO 75 mcg/kg IBW/hr, individual patients (Patient 1, Patient 2)", "description": "This study was an exploratory, three-part, clinical study to assess the effect of pulsed iNO on functional pulmonary imaging parameters in subjects with PH-COPD on LTOT (Part 1) PH-IPF on LTOT (Part 2 and Part 3) (IK-7002-COPD-006; NCT02267655). The objective of this exploratory study was to examine the utility of high resolution computed tomography (HRCT) to measure changes in functional respiratory imaging parameters as a function of short term iNO administration using a pulsed NO delivery device in subjects with PH-IPF (Part 2 and Part 3) on LTOT. The primary endpoint in this exploratory study is the change from baseline in lobar blood volume at total lung capacity (TLC) after dosing with pulsed iNO (Part 1), iNO or Placebo (Part 2a) and after 4 weeks iNO treatment (Part 3b) as measured by HRCT.\nThis was an exploratory clinical study to evaluated the utility of HRCT to measure the pharmacodynamic effects of short term pulsed administration of iNO using a pulsed NO delivery device in subjects with PH-IPF (Part 2 and Part 3) on LTOT. […]\nas §2"}, "[6]": {"tested_on": "subjects with PH-IPF on LTOT", "experiment": "Safety and tolerability of iNO dose, PH-IPF study", "description": "The safety endpoints in this study were: • a. Incidence and severity of treatment emergent adverse events (AEs), including those related to device deficiency; • b. Incidence of MetHb levels>7.0%; • c. New symptoms that may be due to rebound PH associated with a temporal acute withdrawal of investigational study drug (i.e., symptoms occurring within 20 minutes of acute withdrawal and including those associated with investigational medical device malfunction or failure): systemic arterial oxygen desaturation, hypoxemia, bradycardia, tachycardia, systemic hypotension, near-syncope, syncope, ventricular fibrillation, and/or cardiac arrest; • d. New or worsening symptoms of left heart failure or pulmonary edema; and • e. Any decrease in systemic oxygenation measured by oxygen saturation of arterial blood by pulse oximetry (SpO2), i.e., hypoxia or oxygen saturation decrease, deemed by the Investigator to be clinically significant.\nThe initial protocol intended that 4 subjects would be enrolled in Part 2. […] It was decided to temporarily stop recruitment. One of the 2 subjects completed 4 weeks of chronic use in Part 2b.\nIn the amendment a total of 2 subjects participated in Part 3. The dose in Part 3 was lower than in Part 2 and each subject was titrated to the optimum dose as determined by the investigator. […] The dose was monitored with a RHC in place. […]"}, "[7]": {"tested_on": "subjects with PH-COPD", "experiment": "TAPSE (RV function) during chronic pulsed iNO therapy, PH-COPD study", "set-up": "TAPSE Increase: unit not given beside the values", "description": "as §1, §3, §4, §5\nThese subjects were diagnosed with PH-COPD and received 4 weeks of treatment with iNO at a dose of 30 mcg/kg IBW/hr. The results verify the increase in TAPSE which correlates to RV function."}, "[8]": {"tested_on": "subjects with PH-COPD", "experiment": "HRCT blood vessel volume, acute iNO, PH-COPD study (PULSE-COPD-007)", "conditions": "individual subjects #1-#7", "description": "as §3, §4, §5, §6"}, "[9]": {"conditions": "PH-IPF Subject 1, pulsed iNO 75 mcg/kg IBW/hr for 4 weeks, vs baseline"}, "[10]": {"conditions": "PH-IPF Subject 3, pulsed iNO 30 mcg/kg IBW/hr for 4 weeks, vs baseline"}, "[11]": {"conditions": "PH-IPF, average of Subject 1 (75) and Subject 3 (30 mcg/kg IBW/hr), 4 weeks, vs baseline"}, "[12]": {"conditions": "group value, vs baseline 60.3 mm Hg, p=0.02"}, "[13]": {"conditions": "iNO 30 mcg/kg IBW/hr, 4 weeks vs baseline, individual subjects #1-#7"}, "[14]": {"conditions": "iNO 30 mcg/kg IBW/hr for 4 weeks, average of four subjects, vs baseline"}, "[15]": {"conditions": "iNO 30 mcg/kg IBW/hr for 4 weeks, vs baseline, individual subjects (1, 6, 7, 12)"}},
  "note": "“And” between values parts separate entries of the source, which are not always exact repeats. Equal entries are not always repeated.",
  "data": [
    {"molecule": "[N]=O", "note": "[iNO, nitric oxide]", "values": [
      {"measurement": "TAPSE % Change", "setting": "[1]; [9]", "result": 21, "unit": "%"},
      {"measurement": "TAPSE Increase", "setting": "[1]; [9]", "result": 3},
      {"measurement": "TAPSE % Change", "setting": "[1]; [10]", "result": 12, "unit": "%"},
      {"measurement": "TAPSE Increase", "setting": "[1]; [10]", "result": 4},
      {"measurement": "TAPSE % Change, Average", "setting": "[1]; [11]", "result": 15, "unit": "%"},
      {"measurement": "TAPSE Increase, Average", "setting": "[1]; [11]", "result": 3},
      {"measurement": "TAPSE 4 Week, Average", "setting": "[1]; PH-IPF, average of Subject 1 (75 mcg/kg IBW/hr) and Subject 3 (30 mcg/kg IBW/hr), 4 weeks, baseline 20", "result": 23},
      {"measurement": "Acute Change in sPAP (%)", "setting": "[2]", "result": "−9.3% and −9.7%"},
      {"measurement": "sPAP 4 weeks after iNO therapy was discontinued", "setting": "[3]; group value (FIG. 6)", "result": 58.0, "unit": "mm Hg"},
      {"measurement": "sPAP drop after 4 weeks of iNO therapy", "setting": "[3]; [12]", "result": 12.0, "unit": "mm Hg"},
      {"measurement": "sPAP drop after 4 weeks of iNO therapy (%)", "setting": "[3]; [12]", "result": 19.9, "unit": "%"},
      {"measurement": "sPAP, 4 weeks iNO", "setting": "[3]; iNO 30 mcg/kg IBW/hr for 4 weeks, individual subjects #1-#7", "result": "69 mm Hg and 37 mm Hg and 40 mm Hg and 74 mm Hg and 30 mm Hg and 34 mm Hg and 54 mm Hg"},
      {"measurement": "Change sPAP (mm Hg)", "setting": "[3]; [13]", "result": "−25 mm Hg and −10 mm Hg (2×) and −15 mm Hg and −4 mm Hg and −12 mm Hg and −8 mm Hg"},
      {"measurement": "sPAP % Change", "setting": "[3]; [13]", "result": "−27% (2×) and −21% and −5% and −25% and −26% and −13%"},
      {"measurement": "6MWD Change from Baseline, 2 weeks iNO", "setting": "[4]; 2 weeks vs baseline", "result": "+135 meters and +79 meters and +15 meters and +35 meters and +25 meters and +57 meters and +32 meters"},
      {"measurement": "6MWD, 2 weeks iNO", "setting": "[4]; 2 weeks", "result": "335 meters and 263 meters and 493 meters and 115 meters and 495 meters and 400 meters and 173 meters"},
      {"measurement": "6MWD Change from Baseline, 4 weeks iNO", "setting": "[4]; 4 weeks vs baseline", "result": "+135 meters and +11 meters and +2 meters and −3 meters and +28 meters and +80 meters and +100 meters"},
      {"measurement": "6MWD, 4 weeks iNO", "setting": "[4]; 4 weeks", "result": "335 meters and 195 meters and 480 meters and 77 meters and 498 meters and 423 meters and 242 meters"},
      {"measurement": "Acute change in Blood Vessel Volume %", "setting": "[5]", "result": "14.0 ± 4.7% and 34.2 ± 7.6%"},
      {"measurement": "Safety of dose titration monitored with RHC", "setting": "[6]; 2 PH-IPF subjects of Part 3, titrated 5, 10, 30 mcg/kg IBW/hr", "result": "could titrate to iNO at a dose of 30 mcg/kg IBW/hr safely"},
      {"measurement": "PAP after discontinuation of iNO", "setting": "[6]; two PH-IPF patients of Part 2, iNO 75 mcg/kg IBW/hr", "result": "sudden increase in PAP after discontinuation"},
      {"measurement": "TAPSE after iNO therapy was discontinued", "setting": "[7]; group value, N=5 (FIG. 7)", "result": 19.0},
      {"measurement": "TAPSE 4 Week, Average", "setting": "[7]; iNO 30 mcg/kg IBW/hr for 4 weeks, average of four subjects, baseline 16", "result": 20},
      {"measurement": "TAPSE % Change, Average", "setting": "[7]; [14]", "result": 25, "unit": "%"},
      {"measurement": "TAPSE Increase, Average", "setting": "[7]; [14]", "result": 4},
      {"measurement": "TAPSE 4 Week", "setting": "[7]; iNO 30 mcg/kg IBW/hr for 4 weeks, individual subjects (1, 6, 7, 12)", "result": "14 and 18 (2×) and 28"},
      {"measurement": "TAPSE % Change", "setting": "[7]; [15]", "result": "0% and 67% and 22% and 13%"},
      {"measurement": "TAPSE Increase", "setting": "[7]; [15]", "result": "0 and 7 and 5 and 2"},
      {"measurement": "Acute change in Blood Vessel Volume %", "setting": "[8]", "result": "6.2 ± 1.6% and 3.3 ± 2.1% and 6.6 ± 4.5% and 9.7 ± 3.5% and −1.0 ± 4.0% and 2.7 ± 0.4%"}
    ]}
  ]
}
